IC50 data for 13 molecules are collected here from patent EP4800015A1, “AZABICYCLO DERIVATIVE AND PREPARATION METHOD THEREFOR, AND USE” (Zhejiang Hisun Pharmaceutical Co., Ltd., priority 2023, dated 2025).

Molecules are shown by their SMILES. pIC50: −log10 of the molar value.

The target of one assay is T1, recombinant human WRN (Homo sapiens, UniProt Q14191).
T1 construct: purchased BPS 101264
The assay can be described thus: Inhibition of WRN enzyme activity (ATPase), ADP-Glo Kinase Assay. The format is biochemical. The following applies: WRN protein 5 nM, Flap 0.1 nM, ATP 30 µM; read-out: IC50. The procedure, abridged:
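Recombinant human WRN (5 nM) was preincubated with compound (1000–0.004 nM) for 15 min at room temperature. Flap26 5'-flap DNA (0.1 nM) and 30 µM ATP were then added for 10 min in Tris pH 7.5, MgCl2, NaCl, BSA, Pluronic buffer. ADP was detected by ADP-Glo luminescence, and IC50 was obtained by nonlinear regression versus a 0.1% DMSO control.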
On the technique in general: In ADP-Glo the light output rises with the ADP produced.

Another assay deals with SW48 cells. Description: Inhibition of SW48 cell proliferation (CellTiter-Glo). It is filed as cell-based. The following applies: Homo sapiens; SW48 cells (MSI-H), 120 hours. As for the experimental part: The following method was used to determine the effect of the compounds of the present disclosure on SW48 cell proliferation. SW48 cells (MSI-H cells) were purchased from American ATCC cell bank and cultured in Leibovitz's L-15 medium (Gibco, catalog No. 11415064) containing 10% fetal bovine serum, 100 U penicillin, and 100 µg/mL streptomycin. Cell viability was determined by CellTiter-Glo® Luminescent Cell Viability Assay kit (Promega, catalog No. G7573).
(§1) The experiment was performed according to the steps of the kit manual, which is briefly described as follows: test compounds were first dissolved in DMSO to prepare 10 mM stock solutions, and then diluted with medium to prepare test samples, with final compound concentrations ranging from 10000 nM to 1.52 nM. Cells in logarithmic growth phase were seeded into 96-well cell culture plates at a density of 500 cells per well and cultured overnight at 37 °C in an air incubator, then test compounds were added and cultivation continued for 120 hours. After the cultivation was completed, 40 µL of CellTiter-Glo detection reagent was added to each well, shaken for 5 minutes, and then left to stand for 10 minutes. Luminescence values of each well were read on a microplate reader using Luminescence mode. The percentage inhibition at each concentration point was calculated by comparison with the control group (0.1% DMSO), and then IC50 values for the compounds for inhibition of cell proliferation were obtained using nonlinear regression analysis of compound concentration logarithm versus inhibition rate in GraphPad Prism 9 software, as shown in Table 2.
The IC50 value results of the compounds of the present disclosure are represented by A, wherein "A" indicates 1 nM < IC50 ≤ 100 nM. Table 2 IC50 data for inhibition of SW48 cell proliferation by the compounds of the present disclosure
(ATP-based viability assays read luminescence as a measure of living cells.)

A further assay relates to RL95-2 cells. The assay can be described thus: Inhibition of RL95-2 cell proliferation (CellTiter-Glo). The format is cell-based. Particulars: Homo sapiens; RL95-2 cells (MSI-H), 120 hours. As for the experimental part: The following method was used to determine the effect of the compounds of the present disclosure on RL95-2 cell proliferation. RL95-2 cells (MSI-H cells) were purchased from Cell Resource Center of Shanghai Institutes for Biological Sciences, Chinese Academy of Sciences, and cultured in DMEM/F12 medium (Gibco, catalog No. A4192001) containing 10% fetal bovine serum, 100 U penicillin, and 100 µg/mL streptomycin. Cell viability was determined by CellTiter-Glo® Luminescent Cell Viability Assay kit (Promega, catalog No. G7573).
as §1, with “a 5% CO2” for “an air”, “incubator, and” for “incubator,”, “50” for “40”, “3.” for “2.”
The IC50 value results of the compounds of the present disclosure are represented by A, wherein "A" indicates 1 nM < IC50 ≤ 100 nM. Table 3 IC50 data for inhibition of RL95-2 cell proliferation by the compounds of the present disclosure

T1 sequence (Q14191 whole entry): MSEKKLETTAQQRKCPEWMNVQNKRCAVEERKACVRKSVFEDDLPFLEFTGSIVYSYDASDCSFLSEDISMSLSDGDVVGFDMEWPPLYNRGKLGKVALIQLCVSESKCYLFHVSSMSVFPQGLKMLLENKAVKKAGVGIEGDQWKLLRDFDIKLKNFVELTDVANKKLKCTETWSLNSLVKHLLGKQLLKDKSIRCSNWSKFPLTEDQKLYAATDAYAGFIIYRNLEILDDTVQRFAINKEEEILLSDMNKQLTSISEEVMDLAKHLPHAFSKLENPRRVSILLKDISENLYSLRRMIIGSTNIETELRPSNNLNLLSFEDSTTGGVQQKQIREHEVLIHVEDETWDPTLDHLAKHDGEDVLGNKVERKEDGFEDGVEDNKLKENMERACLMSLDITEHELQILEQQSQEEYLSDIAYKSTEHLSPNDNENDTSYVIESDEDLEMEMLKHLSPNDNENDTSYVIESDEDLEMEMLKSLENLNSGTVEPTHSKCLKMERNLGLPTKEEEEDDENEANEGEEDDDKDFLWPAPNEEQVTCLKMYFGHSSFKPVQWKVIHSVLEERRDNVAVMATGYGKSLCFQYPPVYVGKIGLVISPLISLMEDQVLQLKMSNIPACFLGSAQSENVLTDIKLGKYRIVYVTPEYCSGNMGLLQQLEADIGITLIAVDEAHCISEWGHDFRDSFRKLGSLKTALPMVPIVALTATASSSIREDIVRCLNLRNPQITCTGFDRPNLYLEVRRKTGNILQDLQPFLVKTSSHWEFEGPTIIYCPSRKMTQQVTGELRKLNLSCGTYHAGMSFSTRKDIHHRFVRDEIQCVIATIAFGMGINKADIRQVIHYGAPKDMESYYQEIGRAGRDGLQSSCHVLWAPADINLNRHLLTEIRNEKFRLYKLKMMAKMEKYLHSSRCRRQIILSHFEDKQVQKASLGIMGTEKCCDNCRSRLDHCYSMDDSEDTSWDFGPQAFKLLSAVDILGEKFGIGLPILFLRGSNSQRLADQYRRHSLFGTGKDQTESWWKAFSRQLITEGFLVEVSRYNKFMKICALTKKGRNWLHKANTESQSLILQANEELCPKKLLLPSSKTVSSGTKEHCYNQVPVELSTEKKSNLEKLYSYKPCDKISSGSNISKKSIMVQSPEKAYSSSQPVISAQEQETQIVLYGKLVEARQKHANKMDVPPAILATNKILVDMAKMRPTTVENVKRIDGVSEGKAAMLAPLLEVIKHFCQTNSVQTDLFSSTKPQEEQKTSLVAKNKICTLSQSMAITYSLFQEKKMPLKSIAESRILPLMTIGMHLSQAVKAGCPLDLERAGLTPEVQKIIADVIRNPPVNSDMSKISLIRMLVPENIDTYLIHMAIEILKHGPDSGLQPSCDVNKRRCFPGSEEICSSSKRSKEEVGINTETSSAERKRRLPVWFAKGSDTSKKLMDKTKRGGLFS

In general, pIC50 refers to the negative decadic logarithm of the IC50, by convention in mol/L. As for `CCc1c(N2CCN(C(=O)c3ncnc(C)c3O)CC2)c(=O)n2nc(C3=CC4CC(=O)CC4C3)nc2n1CC(=O)Nc1ccc(C(F)(F)F)cc1Cl` (centres unmarked) [Example 17, N-(2-chloro-4-(trifluoromethyl)phenyl)-2-(5-ethyl-6-(4-(5-hydroxy-6-methylpyrimidine-4-carbonyl)piperazin-1-yl)-7-oxo-2-(5-oxo-1,3a,4,5,6,6a-hexahydropentalen-2-yl)-[1,2,4]triazolo[1,5-a]pyrimidin-4(7H)-yl)acetamide], the pIC50 at recombinant human WRN, with SW48 cells and with RL95-2 cells was 7.00 to 9.00 throughout.

`CCc1c(N2CCN(C(=O)c3ncnc(C)c3O)CC2)c(=O)n2nc(C3=CC4CC4C3)nc2n1CC(=O)Nc1ccc(C(F)(F)F)cc1Cl` (centres unmarked) [Example 18, 2-(2-(bicyclo[3.1.0]hex-2-en-3-yl)-5-ethyl-6-(4-(5-hydroxy-6-methylpyrimidine-4-carbonyl)piperazin-1-yl)-7-oxo-[1,2,4]triazolo[1,5-a]pyrimidin-4(7H)-yl)-N-(2-chloro-4-(trifluoromethyl)phenyl)acetamide]: the pIC50 at recombinant human WRN, in the assay with SW48 cells and in the assay with RL95-2 cells was 7.00 to 9.00 throughout.

With `CCc1c(N2CCN(C(=O)c3ncnc(C)c3O)CC2)c(=O)n2nc(-c3cc4ccccc4o3)nc2n1CC(=O)Nc1ccc(C(F)(F)F)cc1Cl` [Example 19, 2-(2-(benzofuran-2-yl)-5-ethyl-6-(4-(5-hydroxy-6-methylpyrimidine-4-carbonyl)piperazin-1-yl)-7-oxo-[1,2,4]triazolo[1,5-a]pyrimidin-4(7H)-yl)-N-(2-chloro-4-(trifluoromethyl)phenyl)acetamide], the pIC50 at recombinant human WRN was above 9.00; with SW48 cells, 7.00 to 9.00; with RL95-2 cells it was 7.00 to 9.00.

Consider `CCc1c(N2CCN(C(=O)c3ncccc3O)CC2)c(=O)n2nc(C3=CC4CC(=O)CC4C3)nc2n1CC(=O)Nc1ccc(C(F)(F)F)cc1Cl` (centres unmarked) [Example 22, N-(2-chloro-4-(trifluoromethyl)phenyl)-2-(5-ethyl-6-(4-(3-hydroxypicolinoyl)piperazin-1-yl)-7-oxo-2-(5-oxo-1,3a,4,5,6,6a-hexahydropentalen-2-yl)-[1,2,4]triazolo[1,5-a]pyrimidin-4(7H)-yl)acet amide], for which the negative-log IC50 (pIC50) on recombinant human WRN, in the assay with SW48 cells and in the assay with RL95-2 cells was 7.00 to 9.00 in each case.

`CCc1c(N2CCN(C(=O)c3ncnc(C)c3O)CC2)c(=O)n2nc(C3=CCCCCC3)nc2n1CC(=O)Nc1ccc(C(F)(F)F)cc1C` [Example 47, 2-(2-(cyclohept-1-en-1-yl)-5-ethyl-6-(4-(5-hydroxy-6-methylpyrimidine-4-carbonyl)piperazin-1-yl)-7-oxo-[1,2,4]triazolo[1,5-a]pyrimidin-4(7H)-yl)-N-(2-methyl-4-(trifluoromethyl)phenyl) acetamide]: the negative-log IC50 (pIC50) on recombinant human WRN, in the assay with SW48 cells and in the assay with RL95-2 cells was 7.00 to 9.00 in each case.

As to `CCc1c(N2CCN(C(=O)c3ncnc(C)c3O)CC2)c(=O)n2nc(C3=CCCCCC3)nc2n1CC(=O)Nc1ccc(C(F)(F)F)cc1F` [Example 49, 2-(2-(cyclohept-1-en-1-yl)-5-ethyl-6-(4-(5-hydroxy-6-methylpyrimidine-4-carbonyl)piperazin-1-yl)-7-oxo-[1,2,4]triazolo[1,5-a]pyrimidin-4(7H)-yl)-N-(2-fluoro-4-(trifluoromethyl)phenyl)acetamide], the pIC50 on recombinant human WRN, with SW48 cells and in the assay on RL95-2 cells was 7.00 to 9.00 throughout.

For the molecule `CCc1c(N2CCN(C(=O)c3ncncc3O)CC2)c(=O)n2nc(-c3ccc4c(c3)CCO4)nc2n1CC(=O)Nc1ccc(C(F)(F)F)cc1Cl` [Example 151, N-(2-chloro-4-(trifluoromethyl)phenyl)-2-(2-(2,3-dihydrobenzofuran-5-yl)-5-ethyl-6-(4-(5-hydroxypyrimidine-4-carbonyl)piperazin-1-yl)-7-oxo-[1,2,4]triazolo[1,5-a]pyrimidin-4(7H)-yl)acetamide], the pIC50 on recombinant human WRN and with SW48 cells was 7.00 to 9.00 throughout.

For `Cc1ncnc(C(=O)N2CCN(c3c(C4CCC4)n(CC(=O)Nc4ccc(C(F)(F)F)cc4Cl)c4nc(-c5ccc6c(c5)CCO6)nn4c3=O)CC2)c1O` [Example 155, N-(2-chloro-4-(trifluoromethyl)phenyl)-2-(5-cyclobutyl-2-(2,3-dihydrobenzofuran-5-yl)-6-(4-(5-hydroxy-6-methylpyrimidine-4-carbonyl)piperazin-1-yl)-7-oxo-[1,2,4]triazolo[1,5-a]pyrimidin-4(7H)-yl)acetamide], the pIC50 at recombinant human WRN and in the assay on SW48 cells was 7.00 to 9.00 in each case.

Consider `[2H]c1cc2cc(-c3nc4n(CC(=O)Nc5ccc(C(F)(F)F)cc5Cl)c(CC)c(N5CCN(C(=O)c6ncnc(C)c6O)CC5)c(=O)n4n3)ccc2s1` [Example 169, 2-(2-(benzo[b]thiophen-5-yl-2-d)-5-ethyl-6-(4-(5-hydroxy-6-methylpyrimidine-4-carbonyl)piperazin-1-yl)-7-oxo-[1,2,4]triazolo[1,5-a]pyrimidin-4(7H)-yl)-N-(2-chloro-4-(trifluoromethyl)phenyl) acetamide], for which the pIC50 on recombinant human WRN and with SW48 cells was 7.00 to 9.00 throughout.

Consider `[2H]c1sc2ccc(-c3nc4n(CC(=O)Nc5ccc(C(F)(F)F)cc5Cl)c(CC)c(N5CCN(C(=O)c6ncnc(C)c6O)CC5)c(=O)n4n3)cc2c1[2H]` [Example 170, 2-(2-(benzo[b]thiophen-5-yl-2,3-d2)-5-ethyl-6-(4-(5-hydroxy-6-methylpyrimidine-4-carbonyl)piperazin-1-yl)-7-oxo-[1,2,4]triazolo9[1,5-a]pyrimidin-4(7H)-yl)-N-(2-chloro-4-(trifluoromethyl)phenyl)acetamide], for which the pIC50 at recombinant human WRN and in the assay on SW48 cells was 7.00 to 9.00 each time.

`CCc1c(N2CCN(C(=O)c3ncnc(C)c3O)CC2)c(=O)n2nc(C3=CCC4(CC3)CC4)nc2n1CC(=O)Nc1ccc(S(F)(F)(F)(F)F)cc1Cl` [Example 174, N-(2-chloro-4-(pentafluoro-λ^6-sulfaneyl)phenyl)-2-(5-ethyl-6-(4-(5-hydroxy-6-methylpyrimidine-4-carbonyl)piperazin-1-yl)-7-oxo-2-(spiro[2.5]oct-5-en-6-yl)-[1,2,4]triazolo[1,5-a]pyrimidin-4(7 H)-yl)acetamide]: the pIC50 on recombinant human WRN and with SW48 cells was 7.00 to 9.00 each time.

On to `CCc1c(N2CCN(C(=O)c3ncnc(C)c3O)CC2)c(=O)n2nc(C3=CCC4(CC3)COC4)nc2n1CC(=O)Nc1ccc(S(F)(F)(F)(F)F)cc1Cl` [Example 175, N-(2-chloro-4-(pentafluoro-λ6-sulfaneyl)phenyl)-2-(5-ethyl-6-(4-(5-hydroxy-6-methylpyrimidine-4-carbonyl)piperazin-1-yl)-7-oxo-2-(2-oxaspiro[3.5]non-6-en-7-yl)-[1,2,4]triazolo[1,5-a]pyrimidin-4(7H)-yl)acetamide], for which the pIC50 at recombinant human WRN and in the assay with SW48 cells was 7.00 to 9.00 throughout.

Regarding `CCc1c(N2CCN(C(=O)c3ncnc(C)c3O)CC2)c(=O)n2nc(C3=CCC4(CC3)COC4)nc2n1CC(=O)Nc1ccc(S(F)(F)(F)(F)F)cc1` [Example 176, 2-(5-ethyl-6-(4-(5-hydroxy-6-methylpyrimidine-4-carbonyl)piperazin-1-yl)-7-oxo-2-(2-oxaspiro[3.5]non-6-en-7-yl)-[1,2,4]triazolo[1,5-a]pyrimidin-4(7H)-yl)-N-(4-(pentafluoro-λ^6-sulfaneyl)phenyl)acetamide], the negative logarithm of the IC50 (pIC50) at recombinant human WRN and with SW48 cells was 7.00 to 9.00 throughout.
